# Measurements reported in patent US20200121627A1, “COMPOSITION COMPRISING AZELAIC ACID OR AS ACTIVE INGREDIENTS FOR MUSCLE STRENGTHENING, DEVELOPMENT, DIFFERENTIATION, REGENERATION OR INHIBITING MUSCLE ATROPHY” (priority 2018, published 2020).
# What was measured:
# [1] = tested on: Mouse myoblast cell line (C2C12 cells); test: Myotube length in differentiating mouse myoblasts (muscle-potentiating efficacy), Wright-Giemsa staining; type: cell-based; settings: 100 μM azelaic acid for two days from the day differentiation began, vs DMSO control
# Protocol: (§1) Mouse myoblast cell line (C2C12 cells) was purchased from ATCC (Manassas, Va., USA) and used. The purchased cell line was incubated in an incubator at 37° C., 5% CO2 using 10% fetal bovine serum medium (Gibco-BRL) and used for experiments. […] In order to identify muscle-potentiating efficacy, treatment with 100 μM azelaic acid (CAS Number 123-99-9, Sigma) was performed for two days from the day when differentiation began, and a control was treated with 100 μM dimethyl sulfoxide (DMSO; Sigma). […] Sigma) and 100 μM azelaic acid (CAS Number 123-99-9, Sigma) was performed for two days from the 4th day of differentiation. The cells were washed twice with phosphate buffered saline (PBS), and then fixed for 10 minutes with 100% methanol. […] Co., Ltd., Seoul, South Korea) that specifically stains myotubes. Stained myotubes were photographed at ×40 magnification using a fluorescence microscope (IX 71, Olympus) and analyzed using Image J software (USA). Six sections of each well were randomly selected and micrographed. Lengths of at least 100 myotubes from each well were analyzed (3 repetitions/group).
# [2] = tested on: Mouse myoblast cell line (C2C12 cells); test: Myotube length in dexamethasone-treated mouse myoblasts (muscle loss-inhibitory efficacy), Wright-Giemsa staining; type: cell-based; settings: 100 μM azelaic acid combined with 50 μM dexamethasone for two days from the 4th day of differentiation
# Protocol: as §1
# [3] = tested on: IGF1; test: Real-time PCR mRNA expression in mouse myoblasts; type: cell-based; settings: azelaic acid treatment of dexamethasone-treated cells, vs Dexa
# Protocol: (§2) Mouse myoblast cell line (C2C12 cells) was purchased from ATCC (Manassas, Va., USA) and used. The purchased cell line was incubated in an incubator at 37° C., 5% CO2 using 10% fetal bovine serum medium (Gibco-BRL) and used for experiments. When the cell line reached a confluency of about 80%, the cells were differentiated into myotubes using 2% horse serum medium (Gibco-BRL). In order to identify muscle-potentiating efficacy, treatment with 100 μM azelaic acid (CAS Number 123-99-9, Sigma) was performed for two days from the day when differentiation began, and a control was treated with 100 μM dimethyl sulfoxide (DMSO; Sigma). In order to identify muscle loss-inhibitory efficacy, combined treatment with 50 μM dexamethasone (dexa; Sigma) and 100 μM azelaic acid (CAS Number 123-99-9, Sigma) was performed for two days from the 4th day of differentiation.
# (§3) 334 μl of Trizol solution was added per 1×10^7 cells of mouse myoblasts, and grinding was performed. Then, the resultant was centrifuged at 4° C. and 12,000×g for 10 minutes. The supernatant was transferred to a new tube. Then, 67 μl of chloroform was added thereto and vortexing was performed. Again, the supernatant was transferred to a new tube, and isopropanol was added so that a ratio of the supernatant to isopropanol was 1:1. After performing vigorous shaking 10 times, the tube was allowed to stand at room temperature for 15 minutes, and centrifuged at 12,000×g and 4° C. for 10 minutes.
# [4] = tested on: MAFbx/Atrogin1; test: Real-time PCR mRNA expression in mouse myoblasts; type: cell-based; settings: azelaic acid treatment of dexamethasone-treated cells, vs Dexa
# Protocol: as §2, §3
# [5] = tested on: MuRF1; test: Real-time PCR mRNA expression in mouse myoblasts; type: cell-based; settings: azelaic acid treatment of dexamethasone-treated cells, vs Dexa
# Protocol: as §2, §3
# [6] = tested on: myostatin; test: Real-time PCR mRNA expression in mouse myoblasts; type: cell-based; settings: azelaic acid treatment of dexamethasone-treated cells, vs Dexa
# Protocol: as §2, §3
# [7] = tested on: p-4E-BP1; test: Western blotting in mouse myoblasts; type: cell-based; settings: azelaic acid treatment of dexamethasone-treated cells, vs Dexa
# Protocol: as §2, with “In order to identify muscle loss-inhibitory efficacy, combined treatment with 50 μM dexamethasone (dexa; Sigma) and 100 μM azelaic acid (CAS Number 123-99-9, Sigma) was performed for two days from the 4th day of differentiation.” left out
# (§4) In order to perform Western blotting in cells, to each well from which the medium was removed was added a lysis buffer that contains 500 μL of 100 mM Tris-HCl, pH 7.4, 5 mM EDTA, 50 mM sodium pyrophosphate, 50 mM NaF, 100 mM orthovanadate, 1% Triton X-100, 1 mM phenylmethanesulfonyl fluoride, 2 μg/mL aprotinin, 1 μg/mL pepstatin A, and 1 μg/mL leupeptin, and the cells were lysed to obtain a lysate. […] Then, the middle layer was taken and proteins were quantified according to the Bradford method (Bio-Rad). 40 μg of the quantified proteins were electrophoresed on SDS polyacrylamide gel and then transferred to nitrocellulose membranes (Amersham, Buckinghamshire, UK).
# [8] = tested on: p-p70S6K1; test: Western blotting in mouse myoblasts; type: cell-based; settings: azelaic acid treatment of dexamethasone-treated cells, vs Dexa
# Protocol: as §2, with “In order to identify muscle loss-inhibitory efficacy, combined treatment with 50 μM dexamethasone (dexa; Sigma) and 100 μM azelaic acid (CAS Number 123-99-9, Sigma) was performed for two days from the 4th day of differentiation.” left out
# as §4
# [9] = tested on: rats; settings: oral administration; cited from earlier work
# [10] = tested on: various strains of skin microorganisms; settings: 0.5 mol/l (8.4% w/v) azelaic acid solution, 24 hours, all bacterial strains; cited from earlier work
# [11] = tested on: interleukin-1β, interleukin-6, and TNF-α; settings: human epidermal cells treated with 20 mM azelaic acid; cited from earlier work
# [12] = tested on: nicotinamide adenine dinucleotide phosphate (NADP) oxidase; settings: cited from earlier work
# [13] = ethanol and water; cited from earlier work
structure (smiles),measurement,setting,value
"O=C(O)CCCCCCCC(=O)O [azelaic acid, nonanedioic acid]",increase in myotube length,[1],62%
same,increase in the myotube length which has decreased due to dexamethasone,[2],62%
same,expression of IGF1 gene,[3],significantly increased
same,expression of MAFbx/Atrogin1 gene,[4],significantly decreased
same,expression of MuRF1 gene,[5],significantly decreased
same,expression of myostatin gene,[6],significantly decreased
same,amount of p-4E-BP1 protein,[7],significantly increased
same,amount of p-p70S6K1 protein,[8],significantly increased
same,LD50,[9],"15,800 mg/kg"
same,decreased viability of bacterial strains,[10],at least 40 fold
same,"mRNA expression and protein secretion of interleukin-1β, interleukin-6, and TNF-α by UVB",[11],inhibition
same,reaction of NADP oxidase (antioxidant effect),[12],inhibiting
same,solubility,[13],soluble
